Square brackets hold non-standard residues; d marks the D form. Peptide text beside a SMILES is read from it. * marks the point of attachment. dPhe(4-NHCONH2) = NC(=O)Nc1ccc(C[C@@H](N)C(=O)O)cc1; Dihydroorotyl(S) = O=C1C[C@@H](C(=O)*)NC(=O)N1; dPhe(4-Cl) = N[C@H](Cc1ccc(Cl)cc1)C(=O)O; Phe(4-NH2) = Nc1ccc(C[C@H](N)C(=O)O)cc1; d2Nal = N[C@H](Cc1ccc2ccccc2c1)C(=O)O; Lys(iPr) = CC(C)NCCCC[C@H](N)C(=O)O; d3Pal = N[C@H](Cc1cccnc1)C(=O)O
Assays:
Format in all cases: in vivo
men with BPH [1] = assay: IPSS questionnaire (sum of scores), clinical trial in BPH patients
Experimental: (§1) For each patient, the following parameters were measured or assessed (using the methods discussed below), at time points of screening day 0 (e.g., −7 days, “baseline”), day 14, day 28, and day 42:
After the initial 6-week treatment period of the exploratory study had been completed, a 12-month follow-up period looking at long-term efficacy commenced. Interim data of the main efficacy variables (IPSS, IPSS Global QoL, prostate volume, urinary flow, and post-void residual volume—measured as set out below) after 6 months' follow-up are also presented herein at Tables 1, 2, 3, and FIG. 1b. FIG. 1b also includes IPSS data at 9 and 12 months.
The IPSS was developed in 1991 by the American Urological Association to assess the severity of urinary symptoms related to BPH (Barry, M. J., et al., The American Urological Association symptom index for benign prostatic hyperplasia. The Measurement Committee of the American Urological Association. J Urol, 1992. 148(5): p. 1549-57; discussion 1564). The IPSS has been widely used in clinical studies, has undergone extensive validation, and its psychometric properties are well documented in both the original version (containing a 1-month recall) as well as the ‘acute’ version used in this study (containing a one-week recall). The WHO recommended the use of this instrument for the evaluation of BPH, and it is considered to be the internationally accepted, standard questionnaire for assessing lower urinary tract symptoms.
The patients completed the IPSS questionnaire to evaluate their urinary symptoms. The IPSS is a patient-administered questionnaire containing seven items to evaluate symptoms of urinary obstruction (i.e., incomplete emptying, frequency, hesitancy, urgency, weak stream, straining, nocturia) over the preceding week. Each urinary symptom question is assigned points from 0 to 5 indicating increasing severity of the particular symptom. The total score can therefore range from 0 to 35 (0-7: mildly symptomatic; 8-19: moderately symptomatic; 20-35: severely symptomatic). A reduction in total score over the treatment period is indicative of prostate symptom improvement.

men with BPH [2] = assay: Peak (maximal) urinary flow by flowmetry
Experimental: as §1
(§2) 2) Efficacy Endpoints—the measured Peak Urinary Flow, Post-void Residual Volume, and Prostate Volume.
Peak urinary flow was determined by flowmetry using the Uropower device (Wiest, World of Medicine AG, Germany). The device fulfilled the International Continence Society standards for maximum urinary flow. The measurement of urinary flow was done in a sitting position.
The Qmax is the maximal urinary flow rate. It is a traditional parameter used in BPH trials and is a good indicator of degree of bladder outlet obstruction (BOO).

men with BPH [3] = assay: Post-void residual volume by transabdominal ultrasound; settings: all treatment groups
Experimental: as §1, §2
The Post-void Residual Volume (PVR) was evaluated by transabdominal ultrasound. The urine in the patient's bladder was sonicated from two directions perpendicular to one another resulting in three cursor positions set by the urologist. The volume was calculated automatically. The investigations were performed by urologists by methods known in the art.

[4] = 16+16 mg, Month 6 follow up, n=6
[5] = 32+32 mg, Month 6 follow up, n=7
[6] = all treatment groups (50 patients), Day 42
[7] = across all patient groups, Day 42

## CC(=O)N[C@H](Cc1ccc2ccccc2c1)C(=O)N[C@H](Cc1ccc(Cl)cc1)C(=O)N[C@H](Cc1cccnc1)C(=O)N[C@@H](CO)C(=O)N[C@@H](Cc1ccc(NC(=O)[C@@H]2CC(=O)NC(=O)N2)cc1)C(=O)N[C@H](Cc1ccc(NC(N)=O)cc1)C(=O)N[C@@H](CC(C)C)C(=O)N[C@@H](CCCCNC(C)C)C(=O)N1CCC[C@H]1C(=O)N[C@H](C)C(N)=O [Degarelix, D-Alaninamide, N-acetyl-3-(2-naphthalenyl)-D-alanyl-4-chloro-D-phenylalanyl-3-(3-pyridinyl)-D-alanyl-L-seryl-4-[[[(4S)-hexahydro-2,6-dioxo-4-pyrimidinyl]carbonyl]amino]-L-phenylalanyl-4-[(aminocarbonyl)amino]-D-phenylalanyl-L leucyl-N6-(1-methylethyl)-L-lysyl-L-prolyl] (Ac-[d2Nal][dPhe(4-Cl)][d3Pal]S[Phe(4-NH2)](Dihydroorotyl(S))[dPhe(4-NHCONH2)]L[Lys(iPr)]P[dA]-NH2)
Men with BPH [1]; 32 mg and 32+32 mg groups, 9 and 12 months (FIG. 1b)
  Improvements in mean sum of IPSS scores: still indicated
Men with BPH [1]; 32 mg s.c. (Day 0), Day 14, N=12
  Mean change from baseline in IPSS score, mean (SD): −7.8 (8.7)
Men with BPH [1]; 32 mg, Day 42
  Percentage responders (decrease in IPSS of at least 30% as compared to baseline): 92%
Men with BPH [1]; 32 mg, Day 42, N=12
  Mean IPSS score, mean (SD): 9.1 (6.2)
  Mean change from baseline in IPSS score, mean (SD): −13.2 (6.6)
Men with BPH [1]; 32 mg, Day 42, N=12, listed as degarelix
  Mean change from baseline in IPSS score, mean (SD): −13.2
Men with BPH [1]; 32 mg, Month 6 follow up, n=7
  Mean IPSS score, mean (SD): 10.4 (6.3)
  Mean change from baseline in IPSS score, mean (SD): −11.6 (8.3)
  Percentage responders (decrease in IPSS of at least 30% as compared to baseline): 86%
Men with BPH [1]; 64 mg s.c. (Day 0), Day 14, N=13
  Mean change from baseline in IPSS score, mean (SD): −8.0 (4.0)
Men with BPH [1]; 64 mg, Day 42
  Percentage responders (decrease in IPSS of at least 30% as compared to baseline): 85%
Men with BPH [1]; 64 mg, Day 42, N=13
  Mean IPSS score, mean (SD): 11.8 (5.9)
  Mean change from baseline in IPSS score, mean (SD): −10.0 (5.0)
Men with BPH [1]; 64 mg, Day 42, N=13, listed as degarelix
  Mean change from baseline in IPSS score, mean (SD): −10.0
Men with BPH [1]; 64 mg, Month 6 follow up, n=4
  Mean IPSS score, mean (SD): 16.0 (8.7)
  Mean change from baseline in IPSS score, mean (SD): −4.0 (3.6)
Men with BPH [1]; 16+16 mg s.c. (Day 0 + Day 14), Day 14, N=13
  Mean change from baseline in IPSS score, mean (SD): −3.2 (5.4)
Men with BPH [1]; 16+16 mg, Day 42
  Percentage responders (decrease in IPSS of at least 30% as compared to baseline): 54%
Men with BPH [1]; 16+16 mg, Day 42, N=13
  Mean IPSS score, mean (SD): 11.6 (4.5)
  Mean change from baseline in IPSS score, mean (SD): −6.1 (4.6)
Men with BPH [1]; 16+16 mg, Day 42, N=13, listed as degarelix
  Mean change from baseline in IPSS score, mean (SD): −6.1
Men with BPH [1]; [4]
  Mean IPSS score, mean (SD): 16.3 (4.7)
  Mean change from baseline in IPSS score, mean (SD): −2.5 (4.3)
  Percentage responders (decrease in IPSS of at least 30% as compared to baseline): 33%
Men with BPH [1]; 32+32 mg s.c. (Day 0 + Day 14), Day 14, N=12
  Mean change from baseline in IPSS score, mean (SD): −5.5 (5.0)
Men with BPH [1]; 32+32 mg, Day 42
  Percentage responders (decrease in IPSS of at least 30% as compared to baseline): 83%
Men with BPH [1]; 32+32 mg, Day 42, N=12
  Mean IPSS score, mean (SD): 8.6 (5.7)
  Mean change from baseline in IPSS score, mean (SD): −9.6 (4.7)
Men with BPH [1]; 32+32 mg, Day 42, N=12, listed as degarelix
  Mean change from baseline in IPSS score, mean (SD): −9.6
Men with BPH [1]; [5]
  Mean IPSS score, mean (SD): 6.7 (4.5)
  Mean change from baseline in IPSS score, mean (SD): −12.6 (9.6)
  Percentage responders (decrease in IPSS of at least 30% as compared to baseline): 86%
Men with BPH [1]; [6]
  Number of patients categorised as "mild" (IPSS 0-7): 17 patients
  Number of patients categorised as "moderate" (IPSS 8-19): 31 patients
  Number of patients categorised as "severe" (IPSS 20-35): 2 patients
Men with BPH [2]; 32 mg, Day 42 (baseline 11.7)
  Mean maximal urinary flow: 11.2 mL/s
Men with BPH [2]; 64 mg, Day 42 (baseline 9.1)
  Mean maximal urinary flow: 11.9 mL/s
Men with BPH [2]; 16+16 mg, Day 42 (baseline 10.0)
  Mean maximal urinary flow: 10.1 mL/s
Men with BPH [2]; 32+32 mg, Day 42 (baseline 9.7)
  Mean maximal urinary flow: 12.2 mL/s
Men with BPH [2]; [7]
  Number of patients in whom maximal urinary flow decreased compared to baseline: 25 patients
  Number of patients in whom maximal urinary flow increased compared to baseline: 24 patients
  Number of patients in whom maximal urinary flow remained unchanged: 1 patient
Men with BPH [3]; Day 14, apparent dose dependent way
  Mean post-void residual volume: decreased
Men with BPH [3]; Day 42
  Mean post-void residual volume versus baseline: lower than the baseline value
  Number of patients in whom post-void residual volume had decreased compared to baseline: 33 patients
  Number of patients in whom post-void residual volume increased compared to baseline: 17 patients
